Results as given in patent US20230398130A1, “METHODS AND COMPOSITIONS FOR DIFFERENTIATING STEM CELLS” (Massachusetts Institute of Technology, priority 2020, published 2023).

Columns and labels:
[1] = tested on: ISC-enriched organoids; assay: Primary screen, 384-well 2.5-D organoid differentiation (ENR+CD, 6 days, Target Selective Inhibitor Library, vs whole-plate median): ATP (CellTiter-Glo 3D, CTG); conditions: primary screen; for Dose.FC.CTG: FC vs plate median; for Z.CTG: standard z score
[2] = tested on: ISC-enriched organoids; assay: Primary screen, 384-well 2.5-D organoid differentiation (ENR+CD, 6 days): carbachol-induced lysozyme secretion (LYZ.S); type: cell-based, murine; conditions: primary screen, FC vs plate median
Description: (§1) High-throughput screening.

[3] = tested on: ISC-enriched organoids; assay: Primary screen, 384-well 2.5-D organoid differentiation (ENR+CD, 6 days): basal lysozyme secretion (LYZ.NS); type: cell-based, murine; conditions: primary screen; for Dose.FC.LYZ.NS: FC vs plate median; for Z.LYZ.NS: standard z score
Description: as §1

Row | Structure (SMILES) | Dose.FC.CTG ([1]; Dose 0.08 uM) | Z.CTG ([1]; Dose 0.08 uM) | Dose.FC.CTG ([1]; Dose 0.40 uM) | Z.CTG ([1]; Dose 0.40 uM) | Dose.FC.CTG ([1]; Dose 2.00 uM) | Z.CTG ([1]; Dose 2.00 uM) | Dose.FC.CTG ([1]; Dose 10.00 uM) | Z.CTG ([1]; Dose 10.00 uM) | Dose.FC.LYZ.S ([2]; Dose 0.08 uM) | Dose.FC.LYZ.S ([2]; Dose 0.40 uM) | Dose.FC.LYZ.S ([2]; Dose 2.00 uM) | Dose.FC.LYZ.S ([2]; Dose 10.00 uM) | Dose.FC.LYZ.NS ([3]; Dose 0.08 uM) | Z.LYZ.NS ([3]; Dose 0.08 uM) | Dose.FC.LYZ.NS ([3]; Dose 0.40 uM) | Z.LYZ.NS ([3]; Dose 0.40 uM) | Dose.FC.LYZ.NS ([3]; Dose 2.00 uM) | Z.LYZ.NS ([3]; Dose 2.00 uM) | Dose.FC.LYZ.NS ([3]; Dose 10.00 uM) | Z.LYZ.NS ([3]; Dose 10.00 uM)
1 | CC(C)c1noc(N2CCC(COc3ccc(-c4ccc(S(C)(=O)=O)cc4)nc3)CC2)n1 [GSK1292263] | 0.161 log 2 fold change | 0.384 | 0.192 log 2 fold change | 0.458 | 0.224 log 2 fold change | 0.535 | 0.196 log 2 fold change | 0.468 | 0.111 log 2 fold change | 0.101 log 2 fold change | 0.060 log 2 fold change | 0.027 log 2 fold change | 0.078 log 2 fold change | 0.681 | 0.050 log 2 fold change | 0.434 | 0.028 log 2 fold change | 0.240 | 0.020 log 2 fold change | 0.173
2 | CCc1cc(Nc2nccc(-c3c(-c4ccc(OC)c(C(=O)Nc5c(F)cccc5F)c4)nc4ccccn34)n2)c(OC)cc1N1CCC(N2CCN(S(C)(=O)=O)CC2)CC1 [GSK1904529A] | 0.202 log 2 fold change | 0.484 | −0.071 log 2 fold change | −0.170 | −0.570 log 2 fold change | −1.361 | −0.691 log 2 fold change | −1.649 | 0.133 log 2 fold change | −0.047 log 2 fold change | −0.225 log 2 fold change | −0.276 log 2 fold change | 0.102 log 2 fold change | 0.890 | 0.112 log 2 fold change | 0.977 | −0.179 log 2 fold change | −1.557 | −0.163 log 2 fold change | −1.419
3 | Cc1cccc(CC(=O)N2CCc3c2ccc(-c2cn(C)c4ncnc(N)c24)c3F)n1 [GSK2656157] | 0.068 log 2 fold change | 0.162 | 0.115 log 2 fold change | 0.274 | 0.083 log 2 fold change | 0.197 | 0.119 log 2 fold change | 0.284 | −0.008 log 2 fold change | 0.060 log 2 fold change | −0.020 log 2 fold change | 0.090 log 2 fold change | −0.031 log 2 fold change | −0.267 | −0.045 log 2 fold change | −0.396 | −0.033 log 2 fold change | −0.291 | −0.012 log 2 fold change | −0.102
4 | CCOC(=O)CCNc1cc(N2CCc3ccccc3CC2)nc(-c2ccccn2)n1.Cl [GSK J4 HCl] | 0.124 log 2 fold change | 0.297 | 0.099 log 2 fold change | 0.237 | 0.002 log 2 fold change | 0.006 | 0.233 log 2 fold change | 0.558 | 0.086 log 2 fold change | 0.109 log 2 fold change | 0.041 log 2 fold change | −0.002 log 2 fold change | 0.058 log 2 fold change | 0.508 | 0.050 log 2 fold change | 0.433 | 0.018 log 2 fold change | 0.153 | −0.001 log 2 fold change | −0.006
